The values below come from patent US8471027B2, “Adamantyl compounds” (Hoffmann-La Roche Inc., priority 2011, dated 2013).

The subject of test [1] is phospho(Ser63)-c-jun in HK-2 cells. Put plainly: Cell-based assay for JNK inhibitors: in-cell ELISA of TNFα-stimulated phospho(Ser63)-c-jun in HK-2 cells. Particulars: Homo sapiens, 10 ng/mL TNFα, 60 min preincubation with compound. The method, then: Cell-Based Assay for JNK Inhibitors
The cell-based assay employed the in-cell ELISA method to determine the ability of compounds to prevent the generation of phospho(Ser63)-c-jun in HK-2 cells (human proximal tubule cells) in response to stimulation with tumor necrosis factor α (TNFα). In brief, for quantification of phospho(Ser63)-c-jun, the cells (in 96-well format) were fixed and permeablized then incubated sequentially with a rabbit anti-phospho-c-jun First Antibody specific for the presence of the phospho-Ser63 epitope and a donkey anti-rabbit IgG Second Antibody linked to horseradish peroxidase (HRP) for colorimetric quantitation of binding. For determination of non-specific binding of the First Antibody, Blank wells were preincubated with a mouse anti-phospho(Ser63)-c-jun Blocking Antibody that prevented specific binding of the First Antibody to the phospho-Ser63 epitope, but which was not recognized by the donkey anti-rabbit IgG Second Antibody. […] Blank wells received no TNFα stimulation or compound. Additional Control wells received TNFα stimulation, but no compound. The signal obtained in this case was considered the value for 0% inhibition (Control value).
Stock cultures of HK-2 cells (ATCC, Manassas, Va.) were grown under a 5% CO2/[…] atmosphere at 37 degrees C. in Keratinocyte-SFM medium (KSFM, Invitrogen, Grand Island, N.Y.) containing 5 μg/L epidermal growth factor and 5 mg/L bovine pituitary extract (both supplied with the medium), additionally supplemented with 10% (v/v) fetal calf serum (FCS; Invitrogen, Grand Island, N.Y.) and 1% (v/v) antibiotic-antimycotic (ABAM: Sigma, St. Louis, Mo.). For assays, cells were seeded in collagen coated 96-well polystyrene plates (BD Biosciences, Franklin Lakes, N.J.) at a density of 40,000 cells/well and cultured for 24 h in the same medium (100 μL/well) followed by a further 16-24 h in 100 μL of similar medium, but without FCS. […] Cells were incubated for a further 30 minutes and then the medium was aspirated and the wells washed with 100 μL/well PBS followed by the addition of 100 μL 3.7% (v/v) Formaldehyde (Fisher Scientific, Fair Lawn, N.J.) in PBS. Plates were then allowed to stand at room temperature for 20 minutes before being washed with 200 μL/well of PBS. (Further steps were performed immediately or the plates were stored at 4 degrees C. and the assay completed the next day.) To each well was added 100 μL 1% (v/v) TritonX-100 (Sigma, St. Louis, Mo.) in PBS followed by 20 minutes standing at room temperature, washing with 200 μL/well PBS, the addition of 100 μL/well of Quenching buffer (1% (v/v) hydrogen peroxide (Sigma, St. Louis, Mo.) and 0.1% (w/v) sodium azide (Fisher Scientific, Fair Lawn, N.J.)) in PBS and a further 20 minutes at room temperature. Plates were then washed twice with 200 μL/well of 0.1% (v/v) Tween-20 (Teknova, Hollister, Calif.) in PBS before addition of 200 μL/well of 2% BSA/0.10% Tween-20 in PBS and a further 1 hour at room temperature. At this time, buffer was removed from Blank wells and replaced with 90 μL/well of mouse anti-phospho-c-jun-Ser63 (BD Bioscience, 558036) diluted 1:4000 in PBS containing 1% BSA/0.1% Tween-20 (Antibody Dilution Buffer). All other wells are replaced with 90 μL/well of rabbit anti-phospho-c-jun-Ser63 (Cell Signaling, 9261) diluted 1:250 in Antibody Dilution Buffer. After a further one hour, rabbit anti-phospho-c-jun-Ser63 is added directly to the solution in the Blank wells resulting in 1:250 dilution of this antibody. Plates were then placed on a slowly rotating platform at 4 degrees C. overnight. Wells were then washed thrice with 200 μL/well PBS/0.1% Tween-20. After addition of the third wash, the plates were placed on a slowly rotating platform for 15 minutes at room temperature. […]

Test [2] concerns the target JNK1 (Homo sapiens, UniProt P45983). Description: In vitro JNK1 Assay (TR-FRET, phosphorylation of GST-c-Jun). In kind it is biochemical. Particulars: 0.2 nM JNK1, 26.7 nM GST-c-Jun, 2 μM ATP. The method, then:
Phosphorylation of GST-c-Jun protein (amino acid residues 1-79) was measured as JNK1 activity. […] The reaction buffer contained 50 mM HEPES, pH 7.0, 10 mM MgCl2, 1 mM DTT, 0.1 mM Na3 VO4 and 0.2 mg/mL BSA. After 30 min. incubation at room temperature, the reaction was terminated by adding buffer containing 8 mM EDTA and a polyclonal anti-phospho-c-Jun antibody (Cell Signaling #9261L), followed by an additional incubation of 30 min. at room temperature. […] Time-resolved Fluorescence Resonance Energy Transfer (TR-FRET) signals were measured 1 hr. later on the EnVision reader (Perkin Elmer). Compound potency was assessed at 10 serially diluted concentrations. Percentage of inhibition at each concentration was determined to generate an IC50 value for each compound.

JNK1, sequence (P45983 whole entry, species assumed, the tested form may be a part): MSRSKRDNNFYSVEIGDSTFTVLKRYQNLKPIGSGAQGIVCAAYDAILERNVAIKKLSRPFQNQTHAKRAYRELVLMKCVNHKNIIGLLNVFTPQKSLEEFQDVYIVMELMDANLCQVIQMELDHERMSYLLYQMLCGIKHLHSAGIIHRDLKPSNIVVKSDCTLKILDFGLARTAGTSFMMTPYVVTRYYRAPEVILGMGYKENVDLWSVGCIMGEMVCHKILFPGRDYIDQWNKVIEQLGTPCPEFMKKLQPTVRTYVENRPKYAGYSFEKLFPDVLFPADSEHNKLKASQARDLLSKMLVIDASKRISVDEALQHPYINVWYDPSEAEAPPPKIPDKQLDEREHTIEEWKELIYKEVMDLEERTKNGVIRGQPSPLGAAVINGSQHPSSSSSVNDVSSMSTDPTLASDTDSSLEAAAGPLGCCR

With `COC(=O)c1c(Cc2ccc(C(=O)N[C@H]3[C@@H]4C[C@@H]5C[C@H]3C[C@@](O)(C5)C4)cc2)c(=O)c2cccnc2n1-c1ccccc1` [Compound I-2, rel-3-[4-((1S,2R,3R,5S,7S)-5-Hydroxy-adamantan-2-ylcarbamoyl)-benzyl]-4-oxo-1-phenyl-1,4-dihydro-[1,8]naphthyridine-2-carboxylic acid methyl ester], in test [1], the EC50 was determined as 8500 nM. In test [2], this compound had an IC50 of 47 nM. Turning to `COC(=O)c1c(Cc2ccc(C(=O)N[C@@H]3[C@@H]4C[C@@H]5C[C@H]3C[C@@](O)(C5)C4)cc2)c(=O)c2ccc(Cl)cc2n1-c1ccccc1` [Compound I-3, rel-7-Chloro-3-[4-((1S,2S,3R,5S,7S)-5-hydroxy-adamantan-2-ylcarbamoyl)-benzyl]-4-oxo-1-phenyl-1,4-dihydro-quinoline-2-carboxylic acid methyl ester], the EC50 in test [1] was determined as 5800 nM. In test [2], this compound displayed an IC50 of 12 nM. For `COC(=O)c1c(Cc2ccc(C(=O)N[C@H]3[C@@H]4C[C@@H]5C[C@H]3C[C@@](O)(C5)C4)cc2)c(=O)c2ccc(Cl)cc2n1-c1ccccc1` [Compound I-4, rel-7-Chloro-3-[4-((1S,2R,3R,5S,7S)-5-hydroxy-adamantan-2-ylcarbamoyl)-benzyl]-4-oxo-1-phenyl-1,4-dihydro-quinoline-2-carboxylic acid methyl ester], the EC50 in test [1] was found to be 6300 nM. Also, the IC50 in test [2] was found to be 51 nM. Consider `O=C(N[C@@H]1[C@@H]2C[C@@H]3C[C@H]1C[C@@](O)(C3)C2)c1ccc(Cc2cn(-c3ccccn3)c3cc(Cl)ccc3c2=O)cc1` [Compound I-5, rel-4-(7-Chloro-4-oxo-1-pyridin-2-yl-1,4-dihydro-quinolin-3-ylmethyl)-N-((1S,2S,3R,5S,7S)-5-hydroxy-adamantan-2-yl)-benzamide], for which the IC50 in test [2] was found to be 330 nM.

As for `COC(=O)c1c(Cc2ccc(C(=O)N[C@@H]3[C@@H]4C[C@@H]5C[C@H]3C[C@@](OC(C)=O)(C5)C4)cc2)c(=O)c2ccc(Cl)cc2n1-c1ccccc1` [Compound I-6, rel-3-[4-((1S,2S,3R,5S,7S)-5-Acetoxy-adamantan-2-ylcarbamoyl)-benzyl]-7-chloro-4-oxo-1-phenyl-1,4-dihydro-quinoline-2-carboxylic acid methyl ester], the EC50 in test [1] came to 4400 nM. In test [2], this compound showed an IC50 of 110 nM. Regarding `COC(=O)c1c(Cc2ccc(C(=O)N[C@H]3[C@@H]4C[C@@H]5C[C@H]3C[C@@](N)(C5)C4)cc2)c(=O)c2cccnc2n1-c1ccccc1` [Compound I-8, rel-3-[4-((1S,2R,3R,5S,7S)-5-amino-adamantan-2-ylcarbamoyl)-benzyl]-4-oxo-1-phenyl-1,4-dihydro-[1,8]naphthyridine-2-carboxylic acid methyl ester], the EC50 in test [1] came out at 44000 nM. Take `COC(=O)c1c(Cc2ccc(C(=O)N[C@@H]3[C@@H]4C[C@@H]5C[C@H]3C[C@@](N)(C5)C4)cc2)c(=O)c2ccc(Cl)cc2n1-c1ccccc1` [Compound I-9, rel-3-[4-((1S,2S,3R,5S,7S)-5-Amino-adamantan-2-ylcarbamoyl)-benzyl]-7-chloro-4-oxo-1-phenyl-1,4-dihydro-quinoline-2-carboxylic acid methyl ester]: in test [1], the EC50 was 3200 nM. In test [2], the midpoint of inhibition, the IC50, lay at 27 nM. Take `COC(=O)c1c(Cc2ccc(C(=O)N[C@@H]3[C@@H]4C[C@@H]5C[C@H]3C[C@@](NC(C)=O)(C5)C4)cc2)c(=O)c2ccc(Cl)cc2n1-c1ccccc1` [Compound I-10, rel-3-[4-((1S,2S,3R,5S,7S)-5-Acetylamino-adamantan-2-ylcarbamoyl)-benzyl]-7-chloro-4-oxo-1-phenyl-1,4-dihydro-quinoline-2-carboxylic acid methyl ester]: in test [1], the EC50 turned out to be 3500 nM. Further, the IC50 in test [2] stood at 30 nM.

As to `COC(=O)c1c(Cc2ccc(C(=O)N[C@@H]3[C@@H]4C[C@@H]5C[C@H]3C[C@@](NC(=O)C(C)(C)C)(C5)C4)cc2)c(=O)c2ccc(Cl)cc2n1-c1ccccc1` [Compound I-11, rel-7-Chloro-3-{4-[(1S,2S,3R,5S,7S)-5-(2,2-dimethyl-propionylamino)-adamantan-2-ylcarbamoyl]-benzyl}-4-oxo-1-phenyl-1,4-dihydro-quinoline-2-carboxylic acid methyl ester], the EC50 in test [1] came out at 6900 nM. Moreover, inhibition in test [2] was half-maximal at 62 nM (IC50). The corresponding values for `COC(=O)c1c(Cc2ccc(C(=O)N[C@@H]3[C@@H]4C[C@@H]5C[C@H]3C[C@@](NC(=O)C(C)(C)OC(C)=O)(C5)C4)cc2)c(=O)c2ccc(Cl)cc2n1-c1ccccc1` [Compound I-12, rel-3-{4-[(1S,2S,3R,5S,7S)-5-(2-Acetoxy-2-methyl-propionylamino)-adamantan-2-ylcarbamoyl]-benzyl}-7-chloro-4-oxo-1-phenyl-1,4-dihydro-quinoline-2-carboxylic acid methyl ester] are 3300 nM and 17 nM. As for `COC(=O)c1c(Cc2ccc(C(=O)N[C@@H]3[C@@H]4C[C@@H]5C[C@H]3C[C@@](NC(=O)C(C)(C)O)(C5)C4)cc2)c(=O)c2ccc(Cl)cc2n1-c1ccccc1` [Compound I-13, rel-7-Chloro-3-{4-[(1S,2S,3R,5S,7S)-5-(2-hydroxy-2-methyl-propionylamino)-adamantan-2-ylcarbamoyl]-benzyl}-4-oxo-1-phenyl-1,4-dihydro-quinoline-2-carboxylic acid methyl ester], in test [1], the EC50 was 1900 nM. This compound also gave an IC50 in test [2] of 42 nM. On the same counts, the results for `COC(=O)c1c(Cc2ccc(C(=O)N[C@@H]3[C@@H]4C[C@@H]5C[C@H]3C[C@@](NS(=O)(=O)C3CC3)(C5)C4)cc2)c(=O)c2ccc(Cl)cc2n1-c1ccccc1` [Compound I-14, rel-7-Chloro-3-[4-((1S,2S,3R,5S,7S)-5-cyclopropanesulfonylamino-adamantan-2-ylcarbamoyl)-benzyl]-4-oxo-1-phenyl-1,4-dihydro-quinoline-2-carboxylic acid methyl ester] are 3100 nM and 26 nM. Take `COC(=O)c1c(Cc2ccc(C(=O)N[C@@H]3[C@@H]4C[C@@H]5C[C@H]3C[C@@](NS(C)(=O)=O)(C5)C4)cc2)c(=O)c2ccc(Cl)cc2n1-c1ccccc1` [Compound I-15, rel-7-Chloro-3-[4-((1S,2S,3R,5S,7S)-5-methanesulfonylamino-adamantan-2-ylcarbamoyl)-benzyl]-4-oxo-1-phenyl-1,4-dihydro-quinoline-2-carboxylic acid methyl ester]: the EC50 in test [1] amounted to 3200 nM. This compound displayed an IC50 in test [2] of 57 nM.
